Data set [1] addresses T1, human D4 dopamine receptor (Homo sapiens, UniProt P21917).
T1 construct: expressed in transfected cells
T1 sequence (P21917 1-419): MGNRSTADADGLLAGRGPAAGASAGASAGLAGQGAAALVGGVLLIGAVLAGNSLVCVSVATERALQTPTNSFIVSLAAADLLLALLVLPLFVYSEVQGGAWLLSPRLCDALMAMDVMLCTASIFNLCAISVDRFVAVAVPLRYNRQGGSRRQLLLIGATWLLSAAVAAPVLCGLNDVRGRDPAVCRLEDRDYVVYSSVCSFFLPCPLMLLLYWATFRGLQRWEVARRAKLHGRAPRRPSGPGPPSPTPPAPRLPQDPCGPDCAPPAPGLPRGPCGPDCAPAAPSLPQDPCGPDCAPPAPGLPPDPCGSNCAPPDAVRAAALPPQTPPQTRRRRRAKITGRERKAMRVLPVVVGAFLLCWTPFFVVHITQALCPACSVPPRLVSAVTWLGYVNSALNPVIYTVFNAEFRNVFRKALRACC
The data set is described as follows: inhibition of [^3 H]spiperone binding to the human D4 dopamine receptor. On the procedure:
(§1) Compounds of Formula I were tested for their ability to bind to dopamine receptors as measured by their inhibition of [^3 H]spiperone binding to the human D2 and D3 receptors in an assay described by MacKenzie R. G., VanLeeuwen D., Pugsley T. A., et al., "Characterization of the human dopamine D3 receptor expressed in transfected cell lines." Eur. J. Pharmacol.-Mol. Pharmacol., 1994;266:79-85; for the human D4 dopamine receptor in an assay described by Pugsley T. A., David M. D., Akunne H. C., et al., "CI-1007, a dopamine partial agonist and potential antipsychotic agent. I. Neurochemical Effects." J. Pharmacol. Exp. Ther., 1995;274:898-911; and for ability to block the action of an agonist in a [^3 H]thymidine incorporation assay described by Lajiness N. E., Chio C. L., Huff R. M., "D2 dopamine receptor stimulation of mitogenesis in transfected Chinese hamster ovary cells: relationship to dopamine stimulation of tyrosine phosphorylations." J. Pharmacol. Exp. Ther., 1993;267:1573-81. This test determines the agonist/antagonist character of a compound by measuring [^3 H]thymidine uptake in Chinese hamster ovary (CHO) pro-5 cells expressing the dopamine D4 receptor. Agonists, such as quinpirole, promote cell growth and subsequent [^3 H]thymidine incorporation, while antagonists block the action of agonists. […] The above articles are incorporated herein by reference for their assay methodology.

Data set [2] deals with T2, human D3 receptor (Homo sapiens, UniProt P35462).
T2 construct: expressed in transfected cells
The data set is described as follows: inhibition of [^3 H]spiperone binding to the human D3 receptor. Conditions: read-out: Dopamine Receptor Binding (Ki, nM) D3. On the procedure: as §1

For data set [3], the target named is T3, human D2 receptor (Homo sapiens, UniProt P14416).
T3 construct: expressed in transfected cells
The data set is described as follows: inhibition of [^3 H]spiperone binding to the human D2 receptor. Conditions: read-out: Dopamine Receptor Binding (Ki, nM) D2. On the procedure: as §1

Data set [4] deals with schizophrenia. Conditions: in vivo; cited from earlier work.
The subject of data set [5] is dopamine D4 receptor. Conditions: D4 vs D2; cited from earlier work.

Structures can show the parent of a compound that is named as a salt. Bounds are passed on as bounds.

What is called Ki is the equilibrium dissociation constant of an inhibitor or competing ligand from its target.

T3 sequence (P14416 whole entry): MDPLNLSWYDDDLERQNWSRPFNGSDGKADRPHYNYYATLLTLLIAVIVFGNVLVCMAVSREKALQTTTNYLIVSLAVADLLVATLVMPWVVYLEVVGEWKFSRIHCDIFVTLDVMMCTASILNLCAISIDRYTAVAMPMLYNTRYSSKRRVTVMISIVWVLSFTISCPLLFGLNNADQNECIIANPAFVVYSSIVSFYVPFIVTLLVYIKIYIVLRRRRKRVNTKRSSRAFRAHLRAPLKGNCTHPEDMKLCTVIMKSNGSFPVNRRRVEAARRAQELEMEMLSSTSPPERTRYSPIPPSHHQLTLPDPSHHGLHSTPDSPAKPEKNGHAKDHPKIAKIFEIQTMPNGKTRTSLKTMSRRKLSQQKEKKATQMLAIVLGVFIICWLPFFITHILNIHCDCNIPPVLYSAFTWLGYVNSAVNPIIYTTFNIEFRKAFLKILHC
T2 sequence (P35462 whole entry): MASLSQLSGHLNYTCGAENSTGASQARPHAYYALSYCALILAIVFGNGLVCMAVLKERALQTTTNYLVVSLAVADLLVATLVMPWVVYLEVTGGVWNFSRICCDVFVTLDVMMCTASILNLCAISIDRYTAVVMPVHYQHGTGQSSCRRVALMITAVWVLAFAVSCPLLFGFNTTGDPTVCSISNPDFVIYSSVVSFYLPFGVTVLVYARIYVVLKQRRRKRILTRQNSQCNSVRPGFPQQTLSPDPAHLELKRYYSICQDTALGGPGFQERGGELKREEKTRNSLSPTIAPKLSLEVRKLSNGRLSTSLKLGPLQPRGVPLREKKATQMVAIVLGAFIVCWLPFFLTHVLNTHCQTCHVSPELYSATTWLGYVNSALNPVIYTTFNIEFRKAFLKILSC

For `COc1ccc2c3c(c(=O)oc2c1)CN(Cc1ccccc1)CC3` [Example 1, 3-Benzyl-8-methoxy-1,2,3,4-tetrahydro-chromeno[3,4-c]-pyridin-5-one], the Ki turned out to be 1.5 nM in data set [1] and 60 nM in data set [2].
The matching figures for `COc1ccc2c3c(c(=O)oc2c1)CN(Cc1ccc(C)cc1)CC3` [Example 3, 8-Methoxy-3-(4-methyl-benzyl)-1,2,3,4-tetrahydro-chromeno[3,4-c]pyridin-5-one]: 2.6 nM and 491 nM.
In data set [1], `COc1ccc2c3c(c(=O)oc2c1)CN(Cc1ccc(Cl)c(Cl)c1)CC3` [Example 4, 3-(3,4-Dichloro-benzyl)-8-methoxy-1,2,3,4-tetrahydro-chromeno[3,4-c]pyridin-5-one] displayed a Ki of 60.9 nM.
`COc1ccc2c3c(c(=O)oc2c1)CN(Cc1ccc([N+](=O)[O-])cc1)CC3` [Example 5, 8-Methoxy-3-(4-nitro-benzyl)-1,2,3,4-tetrahydro-chromeno[3,4-c]pyridin-5-one]: the Ki in data set [1] is 7.53 nM; in data set [3], greater than 5880 nM.
In data set [1], `COc1cc2oc(=O)c3c(c2cc1OC)CCN(Cc1ccccc1)C3` [Example 6, 3-Benzyl-8,9-dimethoxy-1,2,3,4-tetrahydro-chromeno[3,4-c]pyridin-5-one] came in with a Ki of 59 nM.
Consider `Cc1cc2oc(=O)c3c(c2cc1O)CCN(Cc1ccccc1)C3` [Example 7, 3-Benzyl-9-hydroxy-8-methyl-1,2,3,4-tetrahydro-chromeno[3,4-c]pyridin-5-onehydrochloride], for which the results for the inhibition constant (Ki) in data set [1], in data set [2] and in data set [3] were 8.01 nM, 295 nM and 1900 nM, respectively.
Regarding `Cc1c(O)cc2oc(=O)c3c(c2c1O)CCN(Cc1ccccc1)C3` [Example 8, 3-Benzyl-8,10-dihydroxy-9-methyl-1,2,3,4-tetrahydro-chromeno[3,4-c]pyridin-5-one hydrochloride], the Ki in data set [1] was 44.3 nM.
As to `COc1ccc2c3c(c(=O)oc2c1)CN(Cc1ccc(Cl)cc1)CC3` [Example 9, 3-(4-Chloro-benzyl)-8-methoxy-1,2,3,4-tetrahydro-chromeno[3,4-c]pyridin-5-one], the Ki was 7.3 nM in data set [1], 11700 nM in data set [2] and greater than 5880 nM in data set [3].
The compound `COc1ccc2c3c(c(=O)oc2c1)CN(Cc1ccncc1)CC3` [Example 10, 8-Methoxy-3-pyridin-4-ylmethyl-1,2,3,4-tetrahydro-chromeno[3,4-c]pyridin-5-one] displayed a Ki in data set [1] of 73.5 nM.
As to `COc1ccc2c3c(c(=O)oc2c1)CN(Cc1ccnc2ccccc12)CC3` [Example 11, 8-Methoxy-3-quinolin-4-ylmethyl-1,2,3,4-tetrahydro-chromeno[3,4-c]pyridin-5-one], in data set [1], the affinity corresponds to a Ki of 34.3 nM.
For `COc1ccc2c3c(c(=O)oc2c1)CN(Cc1cc(OC)c(OC)c(OC)c1)CC3` [Example 12, 8-Methoxy-3-(3,4,5-trimethoxy-benzyl)-1,2,3,4-tetrahydro-chromeno[3,4-c]pyridin-5-one], the Ki in data set [1] was 21.3 nM; in data set [2] it was 3670 nM; in data set [3] it was 2670 nM.
For the compound `COc1ccc2c3c(c(=O)oc2c1)CN(Cc1ccc(C(F)(F)F)cc1)CC3` [Example 13, 8-Methoxy-3-(4-trifluoromethyl-benzyl)-1,2,3,4-tetrahydro-chromeno[3,4-c]pyridin-5-one], the results for the Ki in data set [1] and in data set [2] were 8.18 nM and 966 nM, respectively.
For `COc1ccc(CN2CCc3c(c(=O)oc4cc(OC)ccc34)C2)cc1` [Example 14, 8-Methoxy-3-(4-methoxy-benzyl)-1,2,3,4-tetrahydro-chromeno[3,4-c]pyridin-5-one], the affinity in data set [1] corresponds to a Ki of 84.3 nM.
Turning to `COc1ccc2c3c(c(=O)oc2c1)CN(Cc1cccc(Cl)c1)CC3` [Example 15, 3-(3-Chloro-benzyl)-8-methoxy-1,2,3,4-tetrahydro-chromeno[3,4-c]pyridin-5-one], the results for the Ki in data set [1] and in data set [2] were 17.2 nM and 2630 nM, respectively.
For the compound `COc1ccc2c3c(c(=O)oc2c1)CN(Cc1ccccc1Cl)CC3` [Example 16, 3-(2-Chloro-benzyl)-8-methoxy-1,2,3,4-tetrahydro-chromeno[3,4-c]pyridin-5-one], the figures for the Ki in data set [1], in data set [2] and in data set [3] were 33.9 nM, 2610 nM and greater than 5880 nM, respectively.
In the case of `Cc1ccc2c3c(c(=O)oc2c1)CN(Cc1ccccc1)CC3` [Example 17, 3-Benzyl-8-methyl-1,2,3,4-tetrahydro-chromeno[3,4-c]pyridin-5-one], the figures for the Ki in data set [1] and in data set [2] were 3.59 nM and 338 nM, respectively.
For the compound `COc1ccc2c3c(c(=O)oc2c1)CN(Cc1cccnc1)CC3` [Example 18, 8-Methoxy-3-pyridin-3-ylmethyl-1,2,3,4-tetrahydro-chromeno[3,4-c]pyridin-5-one], the results for the Ki in data set [1] and in data set [3] were 21.3 nM and 3980 nM, respectively.
With `COc1ccc2c3c(c(=O)oc2c1)CN(Cc1ccccn1)CC3` [Example 19, 8-Methoxy-3-pyridin-2-ylmethyl-1,2,3,4-tetrahydro-chromeno[3,4-c]pyridin-5-one], the affinity in data set [1] corresponds to a Ki of 48 nM.
Same read-out and setting: under `Cc1ccc2c3c(c(=O)oc2c1)CN(Cc1ccc(Cl)cc1)CC3` [Example 20, 3-(4-Chloro-benzyl)-8-methyl-1,2,3,4-tetrahydro-chromeno[3,4-c]pyridin-5-one] stands 10.6 nM.
For `COc1cc2oc(=O)c3c(c2cc1OC)CCN(Cc1ccc(Cl)cc1)C3` [Example 21, 3-(4-Chloro-benzyl)-8,9-dimethoxy-1,2,3,4-tetrahydro-chromeno[3,4-c]pyridin-5-one], the Ki is 8.46 nM in data set [1] and greater than 5880 nM in data set [3].
As to `COc1ccc2c3c(c(=O)oc2c1)CN(CCc1ccccc1)CC3` [Example 22, 8-Methoxy-3-phenethyl-1,2,3,4-tetrahydro-chromeno[3,4-c]pyridin-5-one], the Ki in data set [1] was 6.87 nM; in data set [2], 591 nM; in data set [3] it was greater than 5880 nM.
The compound `COc1cc2oc(=O)c3c(c2cc1OC)CCN(CCc1ccccc1)C3` [Example 23, 8,9-Dimethoxy-3-phenethyl-1,2,3,4-tetrahydro-chromeno[3,4-c]pyridin-5-one hydrochloride] registered a Ki in data set [1] of 32.6 nM.
Same read-out and setting: under `COc1ccc2c3c(c(=O)oc2c1OC)CN(Cc1ccccc1)CC3` [Example 24, 3-Benzyl-7,8-dimethoxy-1,2,3,4-tetrahydro-chromeno[3,4-c]pyridin-5-one] stands 16.2 nM.
Consider `CN1CCN(C2=Nc3cc(Cl)ccc3Nc3ccccc32)CC1` [clozapine], for which, in data set [4], the “improvement of positive and negative symptoms of schizophrenia” value is “improves both the positive and negative symptoms of schizophrenia”; the “incidence of extrapyramidal side effects” value is “low incidence of extrapyramidal side effects”. In addition, in data set [5], the “higher affinity for the dopamine D4 receptor than for the D2 receptor” value is recorded as 10 fold.

(Values after US5760050A, “Antipsychotic method utilizing certain tetrahydrochromeno[3,4-c]pyridin-5-ones” (Warner-Lambert Company, priority 1997, dated 1998).)
